Entries after “also recorded” stand apart in the source; their conditions may differ.

The values that follow come from patent publication US9261498B2, “Biomarker for sensitivity to mTOR inhibitor therapy in kidney cancer” (The Regents of the University of California, priority 2005, dated 2016).

Assay [1] concerns VHL knockdown xenograft tumors. In words: Microvessel density by CD-31 immunolabeling in xenograft tumors. In kind it is in vivo, SCID mice. The protocol: (§1) FIGS. 2A-2C. Effects of VHL knockdown on angiogenesis. (a) Microvessel density was quantified by CD-31 immunolabeling (arrows) in the xenograft tumors, and difference between CCI-779 treated (+) and vehicle (−) treated mice quantified (n=6 in each group). P<0.0033 for microvessel density counts in VHL shRNA compared to vector only (see blue bars). (b) Similar number of cells were plated and maintained in 10% serum rich media, in the presence (+) or absence (−) of 10 nM CCI-779. Thirty-six hours later, conditioned media was analyzed by anti-VEGF ELISA and cell extracts prepared for protein quantification. VEGF values were normalized to total cellular protein. Error bars equal one standard deviation (n=3). (c) Immunohistochemistry for VEGF protein was performed on paraffin embedded tumor xenografts from vehicle and CCI-779 treated mice.
(§2) Xenograft tumor samples were fixed in 10% buffered formalin and embedded in paraffin. […] Microvessel density was quantified by as described previously (Weidner, N. et al. J Natl Cancer Inst 84, 1875-87 (1992)). Briefly, microvessel density was determined by light microscopy in areas of the xenograft tumor containing highest numbers of capillaries and small venules (microvessels) per area (i.e. neovascular “hotspots”) by scanning the tumor sections at low power (40× and 100×). […]

In the next assay the test system is HIF-1α. As to the kind of experiment: Immunoblot of heterologously expressed HIF-1α cDNA with or without 5'TOP sequences. Type of assay: cell-based, human. Particulars: VHL wild-type SN12C cells, 1 or 10 nM CCI-779, 24 hours. The protocol: (a) SN12C-CSCG and SN12C-VHLshRNA cell were treated with vehicle, 1 nM or 10 nM of CCI-779 and lysed 24 hours later. Lysates were subjected to immunoblotting for HIF-1α, HIF-2α, GLUT-1, CA-IX, p-eIF4G, p-S6 Ribosomal protein. Equal protein loading was verified using anti-β-actin antibody. (b) HIF-1α expression was probed by immunoblotting in SN12C-MSCV-5′TOP-HIF-1α cDNA (left panel) and SN12C-MSCV-HIF-1α cDNA (tight panel) post 24 hours of vehicle, 1 nM or 10 nM of CCI-779.
The pCSUVCG (U6-shRNA-VHL-CMV-GFP) was constructed by ligating the BamHI/EcoRI digests of pCSCG and the U6-shRNA-VHL PCR product (see, e.g. Chen, C. D. et al. Nat Med 10, 33-9 (2004)). The U6-shRNA-VHL PCR was performed using a hU6-containing plasmid at an annealing temperature of 60° C. with the primers 5′ abc 3′ and 5′ xyz 3′. […]
Cells and xenograft tumors were lysed in ECB lysis buffer or high-detergent buffer (2% SDS), respectively, supplemented with complete protease and phosphatase inhibitor cocktails (Calbiochem). […] Bound antibody was detected using enhanced chemiluminescence (ECL, Amersham). For VEGF ELISA quantification, cells were plated in 6 well plates (1×10^5 per well). […] Thirty-six hours later, VEGF ELISA (R&D Systems) was performed according to the manufacturer's instructions, using a Fisher Plate reader. […]

A further assay relates to VEGF. In words: VEGF immunohistochemistry on xenograft tumors. Type of assay: in vivo, SCID mice. The conditions noted are these: CCI-779 treated vs vehicle. How it is done:
as §1, §2

On to `CO[C@H]1C[C@@H]2CC[C@@H](C)[C@@](O)(O2)C(=O)C(=O)N2CCCC[C@H]2C(=O)O[C@H]([C@H](C)C[C@@H]2CC[C@@H](OC(=O)C(C)(CO)CO)[C@H](OC)C2)CC(=O)[C@H](C)/C=C(\C)[C@@H](O)[C@@H](OC)C(=O)[C@H](C)C[C@H](C)/C=C/C=C/C=C/1C` [CCI-779], for which the “angiogenesis as measured by microvessel density” value in assay [1] (CCI-779 treated vs vehicle) is given as “objective decrease in angiogenesis”. The “decrease in microvessel density” value in assay [1] (CD-31 staining, CCI-779 0.1 mg/kg vs vehicle) was “greater than 50%”. In the assay on HIF-1α, the “HIF-1α protein levels, 5'TOP sequence removed” value is listed as “largely unaffected” and the “HIF-1α protein levels, cDNA retaining the 5'TOP sequences” value is recorded as “reduction in HIF-1α protein levels; also recorded: decrease in HIF-1α protein levels”. Moreover, in the assay on VEGF, the “VEGF protein expression in VHL knockdown xenografts” value is on record as “reversed; also recorded: reduced”.
